Measurements reported in US20060142271A1, “Novel lapacho compounds and methods of use thereof” (priority 2002, published 2006).
Like-named read-outs stand apart in the source and are kept apart here.

Tests used:
[1] = tested on: HaCaT cells; test: HaCaT keratinocyte proliferation assay (cell counting); type: cell-based, human; settings: for inhibition of HaCaT cell proliferation (in words): HaCaT cells; for IC50: antiproliferative activity against HaCaT cells, N = 3, read-out: AA in HaCaT Cells IC50
Description: Anthralin, an antipsoriatic drug, was used as a positive control. Antiproliferative activity was measured directly by counting the dispersed cells under a phase-contrast microscope.
HaCaT keratinocyte proliferation assay and LDH release were described previously in full detail (Muller et al. J. Med. Chem. 39: 3132-3138, 1996; Müller et al. J. Med. Chem. 37: 1660-1669, 1994). For the cancer cell line studies, exponentially growing cells were seeded at 1,000 cells per well in six-well plates and allowed to attach for 24 h. Compounds of the invention or β-lapachone, solubflized in DMSO, were added to the wells in micromolar concentrations. Control wells were treated with equivalent volumes of DMSO. After 4 h the supernatant was removed and fresh medium was added. Cultures were observed daily for 10-15 days and then were fixed and stained. Colonies of greater than 30 cells were scored as survivors. […]

[2] = tested on: HaCaT cells; type: cell-based, human; settings: for LDH (mU): human, 2 μM
Description: (§1) HaCaT keratinocyte proliferation assay and LDH release were described previously in full detail (Muller et al. J. Med. Chem. 39: 3132-3138, 1996; Müller et al. J. Med. Chem. 37: 1660-1669, 1994). For the cancer cell line studies, exponentially growing cells were seeded at 1,000 cells per well in six-well plates and allowed to attach for 24 h. Compounds of the invention or β-lapachone, solubflized in DMSO, were added to the wells in micromolar concentrations. Control wells were treated with equivalent volumes of DMSO. After 4 h the supernatant was removed and fresh medium was added. Cultures were observed daily for 10-15 days and then were fixed and stained. Colonies of greater than 30 cells were scored as survivors.
The cytotoxicity of naphthoquinones has been thought to result, at least in part, from reactive oxygen species, generated during redox cycling between the […] and reduction products (Munday, R., Free Radic. Biol. Med., 22, 689-695, 1997), which cause peroxidative damage to membrane lipids. To assess the correlation of keratinocyte growth inhibition with membrane damage, the release of lactate dehydrogenase from the treated cells was also quantitated.

[3] = tested on: colon cancer cell line DLD1; test: Cancer cell line colony survival assay, DLD1; type: cell-based, human; settings: colon cancer cell line DLD1, 4 h exposure, colonies after 10-15 days, read-out: AA in Cancer Cell Lines IC50 (μM) DLD1
Description: as §1

[4] = tested on: colon cancer cell line SW480; test: Cancer cell line colony survival assay, SW480; type: cell-based, human; settings: colon cancer cell line SW480, 4 h exposure, colonies after 10-15 days, read-out: AA in Cancer Cell Lines IC50 (μM) SW480
Description: as §1

[5] = tested on: breast cancer cell line MCF7; test: Cancer cell line colony survival assay, MCF7; type: cell-based, human; settings: breast cancer cell line MCF7, 4 h exposure, colonies after 10-15 days, read-out: AA in Cancer Cell Lines IC50 (μM) MCF7
Description: as §1

LDH (mU) [2]	Compound	inhibition of HaCaT cell proliferation (in words) [1]	IC50 ([1]; Homo sapiens)	LDH release compared to vehicle control (in words) [2]	IC50 ([3]; Homo sapiens, DLD-1)	IC50 ([4]; Homo sapiens)	IC50 ([5]; Homo sapiens)	also measured
331 mU	CC(=O)c1cc2c(o1)C(=O)c1ccccc1C2=O [Compound 6, 2-Acetyl-naphtho[2,3-b]furan4,9-dione]	inhibited cell proliferation	0.5 µM	significant LDH release as compared to vehicle	0.8 µM	≤ 1 µM	≤ 1 µM	
	COc1ccc(C(=O)c2cc3cc4ccccc4cc3s2)cc1 [Compound 62a, (4-Methoxyphenyl)-naphtho[2,3-b]thiophen-2-yl-methanone]		> 5 µM		> 32 µM	> 32 µM	> 32 µM	
	COc1ccc(C(=O)c2cc3c(s2)C(=O)c2ccccc2C3=O)cc1 [Compound 62b, 2-(4-Methoxybenzoyl)-naphtho[2,3-b]thiophene-4,9-dione]		> 5 µM		5.5 µM	16 µM	3 µM	
123 mU	O=C(c1ccc(O)cc1)c1cc2c(s1)C(=O)c1ccccc1C2=O [Compound 62c, 2-(4-Hydroxybenzoyl)-naphtho[2,3-b]thiophene-4,9-dione]		2.7 µM		5.3 µM	12 µM	2 µM	
	CC(=O)c1cc2cc3ccccc3cc2s1 [Compound 63a, Naphtho[2,3-b]thiophen-2-yl-ethanone]	inhibited cell proliferation at concentrations comparable to β-lapachone and the furan analogs		without significant elevation of LDH release over the vehicle control				IC50 [1]: 5 µM; IC50 [3]: > 32 µM; IC50 [4]: > 32 µM; IC50 [5]: > 32 µM
	O=C(c1ccc([N+](=O)[O-])cc1)c1cc2c(s1)C(=O)c1ccccc1C2=O [Compound 66b, 2-(4-Nitrobenzoyl)-naphtho[2,3-b]thiophene-4,9-dione]		4 µM		25 µM			melting point: 270 °C
	CC(=O)c1cc2cc3ccccc3cc2o1 [Compound 73a, Naphtho[2,3-b]furan-2-yl-ethanone]							IC50 [1]: > 5 µM; IC50 [3]: > 32 µM; IC50 [4]: > 32 µM; IC50 [5]: > 32 µM
222 mU	O=C(c1ccccc1)c1cc2c(o1)C(=O)c1ccccc1C2=O [Compound 74b, 2-Benzoyl-naphtho[2,3-b]furan-4,9-dione]		0.7 µM					melting point: 198 to 200 °C
	COc1ccc(C(=O)c2cc3cc4ccccc4cc3o2)cc1OC [Compound 75a, (3,4-Dimethoxyphenyl)-naphtho[2,3-b]furan-2-yl-methanone]		> 5 µM		14 µM	30 µM	12 µM	
	COc1ccc(C(=O)c2cc3c(o2)C(=O)c2ccccc2C3=O)cc1OC [Compound 75b, 2-(3,4-Dimethoxybenzoyl)-naphtho[2,3-b]furan:4,9-dione]							IC50 [1]: 2.5 µM; IC50 [3]: 1.4 µM
117 mU	O=C1c2cccc(O)c2C(=O)c2ccsc21 [Compound 82, 5-Hydroxy-naphtho[2,3-b]thiophene-4,9-dione]	inhibited cell proliferation at concentrations comparable to β-lapachone and the furan analogs	1 µM	without significant elevation of LDH release over the vehicle control				
294 mU	O=C1c2c(O)cccc2Cc2cccc(O)c21 [anthralin, reference compound]		0.7 µM	LDH release significantly higher than vehicle controls				

Compound	LDH (mU) [2]	inhibition of HaCaT cell proliferation (in words) [1]	IC50 ([1]; Homo sapiens)	LDH release compared to vehicle control (in words) [2]	IC50 ([3]; Homo sapiens, DLD-1)	IC50 ([4]; Homo sapiens)	IC50 ([5]; Homo sapiens)	also measured
CC(=O)Oc1cccc2c1C(=O)c1ccsc1C2=O [Compound 81, 5-Acetoxy-naphtho[2,3-b]thiophene-4,9-dione]	160 mU	inhibited cell proliferation at concentrations comparable to β-lapachone and the furan analogs	1.4 µM	without significant elevation of LDH release over the vehicle control				
